Where “and” joins values, the source holds several entries; their conditions need not be identical. Identical values can stand only once.
Legend:
Experiment in all cases: Kinase panel radiometric filter binding (33P-ATP)
Assay type in all cases: biochemical
Parameters in all cases: % activity remaining: dose or concentration left out as unconfirmed
IR = IR (Homo sapiens, UniProt P06213); settings: for % activity remaining: IR
Method: (§1) Table S4: AMPKA kinase activity data (ADP-Glo assay)
(§2) Compound pIC50 (Fold selectivity
(§3) Table S5. Kinase selectivity screening for 9 and 24 at 1 µM against a general kinase panel of 140 targets
(§4) in radiometric filter binding assay using 33P-γ−ATP at the MRC PPU International Centre for Kinase
(§5) Profiling, University of Dundee. pIC50 values were determined for compounds with <20% activity
(§6) Kinase activity s.d. pIC50 activity s.d. pIC50

MST3 = MST3 (Homo sapiens, UniProt Q9Y6E0); settings: for % activity remaining: MST3
Method: as §1, §2, §3, §4, §5, §6

MELK = MELK (Homo sapiens, UniProt Q14680); settings: for % activity remaining: MELK
Method: as §1, §2, §3, §4, §5, §6

ULK2 = target: T1, ULK2 (Homo sapiens, UniProt Q8IYT8); settings: for % activity remaining: ULK2
T1 sequence (Q8IYT8 1-1036): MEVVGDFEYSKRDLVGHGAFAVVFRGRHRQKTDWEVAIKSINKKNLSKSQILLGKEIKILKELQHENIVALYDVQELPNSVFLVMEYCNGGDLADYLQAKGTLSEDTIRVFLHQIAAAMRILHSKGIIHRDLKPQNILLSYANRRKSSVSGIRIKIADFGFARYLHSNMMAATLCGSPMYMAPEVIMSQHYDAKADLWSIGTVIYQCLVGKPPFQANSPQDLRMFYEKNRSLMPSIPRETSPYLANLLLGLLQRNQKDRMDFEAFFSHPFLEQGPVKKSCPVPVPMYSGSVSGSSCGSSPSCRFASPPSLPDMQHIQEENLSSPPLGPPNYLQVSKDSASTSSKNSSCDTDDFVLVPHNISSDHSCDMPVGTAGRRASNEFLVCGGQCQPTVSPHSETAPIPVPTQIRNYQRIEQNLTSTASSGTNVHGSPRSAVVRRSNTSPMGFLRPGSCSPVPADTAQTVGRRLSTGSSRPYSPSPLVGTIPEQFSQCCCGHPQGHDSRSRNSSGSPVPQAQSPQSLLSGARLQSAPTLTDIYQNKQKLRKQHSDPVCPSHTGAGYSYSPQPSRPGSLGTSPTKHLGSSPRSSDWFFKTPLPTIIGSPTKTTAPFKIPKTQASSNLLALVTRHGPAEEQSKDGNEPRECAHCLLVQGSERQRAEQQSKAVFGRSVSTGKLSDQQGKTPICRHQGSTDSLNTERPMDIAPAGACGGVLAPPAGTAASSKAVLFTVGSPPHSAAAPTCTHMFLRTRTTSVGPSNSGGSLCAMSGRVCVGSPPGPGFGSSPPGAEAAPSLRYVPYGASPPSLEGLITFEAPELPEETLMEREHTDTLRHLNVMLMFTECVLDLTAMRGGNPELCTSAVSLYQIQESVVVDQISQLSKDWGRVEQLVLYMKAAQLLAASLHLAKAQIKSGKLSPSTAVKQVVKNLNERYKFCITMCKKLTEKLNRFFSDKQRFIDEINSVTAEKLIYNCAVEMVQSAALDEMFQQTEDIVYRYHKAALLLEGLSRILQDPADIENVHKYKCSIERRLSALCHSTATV
Method: as §1, §2, §3, §4, §5, §6

MAP4K5 = MAP4K5 (Homo sapiens, UniProt Q9Y4K4); settings: for % activity remaining: MAP4K5
Method: as §1, §2, §3, §4, §5, §6

TAK1 = target: T2, TAK1 (Homo sapiens, UniProt O43318); settings: for % activity remaining: TAK1
T2 sequence (O43318 1-303 limits assumed): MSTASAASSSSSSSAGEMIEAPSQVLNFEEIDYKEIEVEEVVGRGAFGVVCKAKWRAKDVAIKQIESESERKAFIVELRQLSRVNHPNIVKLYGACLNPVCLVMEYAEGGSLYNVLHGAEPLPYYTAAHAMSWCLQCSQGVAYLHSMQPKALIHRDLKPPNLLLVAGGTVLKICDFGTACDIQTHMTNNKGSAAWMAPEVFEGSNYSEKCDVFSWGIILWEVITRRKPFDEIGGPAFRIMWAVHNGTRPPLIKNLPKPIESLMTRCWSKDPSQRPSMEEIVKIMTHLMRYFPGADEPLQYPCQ
Method: as §1, §2, §3, §4, §5, §6

MARK1 = target: T3, MARK1 (Homo sapiens, UniProt Q9P0L2); settings: for % activity remaining: MARK1
T3 construct: purchased MRC PPU
Method: as §1, §2, §3, §4, §5, §6

[1] = radiometric filter binding panel

Chain of MAP4K5 (Q9Y4K4 whole entry, species assumed): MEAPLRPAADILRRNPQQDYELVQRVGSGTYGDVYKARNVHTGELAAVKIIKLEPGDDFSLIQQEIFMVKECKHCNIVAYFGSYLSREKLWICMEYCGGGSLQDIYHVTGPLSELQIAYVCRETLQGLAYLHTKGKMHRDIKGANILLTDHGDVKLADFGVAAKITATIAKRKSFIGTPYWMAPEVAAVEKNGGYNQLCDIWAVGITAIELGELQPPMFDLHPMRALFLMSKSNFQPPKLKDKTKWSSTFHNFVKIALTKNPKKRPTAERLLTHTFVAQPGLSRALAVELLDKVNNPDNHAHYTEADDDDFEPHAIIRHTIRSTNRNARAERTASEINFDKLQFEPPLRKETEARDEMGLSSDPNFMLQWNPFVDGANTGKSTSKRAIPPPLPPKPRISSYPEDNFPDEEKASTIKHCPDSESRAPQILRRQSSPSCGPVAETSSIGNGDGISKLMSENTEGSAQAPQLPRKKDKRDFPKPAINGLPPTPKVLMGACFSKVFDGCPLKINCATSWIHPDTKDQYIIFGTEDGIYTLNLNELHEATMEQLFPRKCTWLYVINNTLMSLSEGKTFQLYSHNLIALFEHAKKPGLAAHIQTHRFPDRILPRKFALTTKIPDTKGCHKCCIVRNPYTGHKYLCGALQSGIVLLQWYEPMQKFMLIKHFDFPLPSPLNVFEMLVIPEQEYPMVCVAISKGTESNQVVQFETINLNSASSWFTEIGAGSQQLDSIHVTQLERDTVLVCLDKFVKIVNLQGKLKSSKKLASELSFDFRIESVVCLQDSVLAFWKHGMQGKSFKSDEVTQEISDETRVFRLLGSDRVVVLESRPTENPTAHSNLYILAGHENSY
Chain of MST3 (Q9Y6E0 whole entry, species assumed): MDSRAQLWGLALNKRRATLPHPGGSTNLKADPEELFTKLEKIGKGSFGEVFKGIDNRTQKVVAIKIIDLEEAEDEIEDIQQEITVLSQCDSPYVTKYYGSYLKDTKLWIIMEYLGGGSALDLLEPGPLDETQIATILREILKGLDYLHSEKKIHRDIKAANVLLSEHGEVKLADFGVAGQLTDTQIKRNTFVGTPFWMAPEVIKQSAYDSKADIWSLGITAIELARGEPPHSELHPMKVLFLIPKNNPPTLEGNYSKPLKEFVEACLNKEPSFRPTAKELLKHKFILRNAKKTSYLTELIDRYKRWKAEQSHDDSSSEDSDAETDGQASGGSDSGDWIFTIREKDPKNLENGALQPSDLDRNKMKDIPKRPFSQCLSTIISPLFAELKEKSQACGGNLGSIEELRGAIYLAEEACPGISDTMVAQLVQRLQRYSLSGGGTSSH
T3 sequence (Q9P0L2 whole entry): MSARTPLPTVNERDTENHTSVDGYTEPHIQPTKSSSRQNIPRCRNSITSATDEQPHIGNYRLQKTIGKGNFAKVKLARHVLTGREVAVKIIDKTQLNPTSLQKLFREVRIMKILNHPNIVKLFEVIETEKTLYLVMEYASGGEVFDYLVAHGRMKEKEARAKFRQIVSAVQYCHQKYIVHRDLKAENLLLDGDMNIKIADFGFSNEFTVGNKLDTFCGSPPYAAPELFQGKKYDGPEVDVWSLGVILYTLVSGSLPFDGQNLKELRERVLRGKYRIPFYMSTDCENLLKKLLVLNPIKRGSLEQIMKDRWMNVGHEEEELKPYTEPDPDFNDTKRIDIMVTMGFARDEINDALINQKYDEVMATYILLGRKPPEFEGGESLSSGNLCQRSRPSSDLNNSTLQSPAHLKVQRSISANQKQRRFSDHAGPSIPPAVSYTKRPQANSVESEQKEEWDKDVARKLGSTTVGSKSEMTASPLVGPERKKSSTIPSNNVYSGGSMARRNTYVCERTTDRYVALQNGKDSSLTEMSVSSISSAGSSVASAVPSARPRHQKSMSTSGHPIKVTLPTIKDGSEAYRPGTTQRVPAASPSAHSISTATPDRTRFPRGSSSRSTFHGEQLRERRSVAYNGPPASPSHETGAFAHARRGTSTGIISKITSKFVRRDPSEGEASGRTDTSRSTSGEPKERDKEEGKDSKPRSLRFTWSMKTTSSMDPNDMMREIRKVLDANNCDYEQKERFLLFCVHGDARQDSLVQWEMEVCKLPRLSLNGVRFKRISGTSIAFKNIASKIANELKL
Chain of MELK (Q14680 whole entry, species assumed): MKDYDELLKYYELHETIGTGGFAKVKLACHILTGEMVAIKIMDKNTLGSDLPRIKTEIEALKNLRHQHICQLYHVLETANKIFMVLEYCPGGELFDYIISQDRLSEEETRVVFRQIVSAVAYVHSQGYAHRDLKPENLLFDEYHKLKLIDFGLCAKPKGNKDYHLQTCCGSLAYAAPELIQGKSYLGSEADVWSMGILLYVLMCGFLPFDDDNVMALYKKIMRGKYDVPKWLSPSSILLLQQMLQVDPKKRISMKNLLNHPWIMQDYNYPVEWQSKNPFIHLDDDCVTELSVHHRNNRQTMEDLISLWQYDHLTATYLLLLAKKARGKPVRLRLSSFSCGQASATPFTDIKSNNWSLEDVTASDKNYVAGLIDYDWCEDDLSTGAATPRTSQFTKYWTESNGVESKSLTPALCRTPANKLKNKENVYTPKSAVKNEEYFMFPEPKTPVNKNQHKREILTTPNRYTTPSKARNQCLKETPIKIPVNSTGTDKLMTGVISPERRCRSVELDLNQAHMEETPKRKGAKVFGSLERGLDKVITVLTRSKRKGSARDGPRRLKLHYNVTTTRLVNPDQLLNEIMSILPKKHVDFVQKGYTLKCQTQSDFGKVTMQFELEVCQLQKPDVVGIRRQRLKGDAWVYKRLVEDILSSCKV
Chain of IR (P06213 28-1382): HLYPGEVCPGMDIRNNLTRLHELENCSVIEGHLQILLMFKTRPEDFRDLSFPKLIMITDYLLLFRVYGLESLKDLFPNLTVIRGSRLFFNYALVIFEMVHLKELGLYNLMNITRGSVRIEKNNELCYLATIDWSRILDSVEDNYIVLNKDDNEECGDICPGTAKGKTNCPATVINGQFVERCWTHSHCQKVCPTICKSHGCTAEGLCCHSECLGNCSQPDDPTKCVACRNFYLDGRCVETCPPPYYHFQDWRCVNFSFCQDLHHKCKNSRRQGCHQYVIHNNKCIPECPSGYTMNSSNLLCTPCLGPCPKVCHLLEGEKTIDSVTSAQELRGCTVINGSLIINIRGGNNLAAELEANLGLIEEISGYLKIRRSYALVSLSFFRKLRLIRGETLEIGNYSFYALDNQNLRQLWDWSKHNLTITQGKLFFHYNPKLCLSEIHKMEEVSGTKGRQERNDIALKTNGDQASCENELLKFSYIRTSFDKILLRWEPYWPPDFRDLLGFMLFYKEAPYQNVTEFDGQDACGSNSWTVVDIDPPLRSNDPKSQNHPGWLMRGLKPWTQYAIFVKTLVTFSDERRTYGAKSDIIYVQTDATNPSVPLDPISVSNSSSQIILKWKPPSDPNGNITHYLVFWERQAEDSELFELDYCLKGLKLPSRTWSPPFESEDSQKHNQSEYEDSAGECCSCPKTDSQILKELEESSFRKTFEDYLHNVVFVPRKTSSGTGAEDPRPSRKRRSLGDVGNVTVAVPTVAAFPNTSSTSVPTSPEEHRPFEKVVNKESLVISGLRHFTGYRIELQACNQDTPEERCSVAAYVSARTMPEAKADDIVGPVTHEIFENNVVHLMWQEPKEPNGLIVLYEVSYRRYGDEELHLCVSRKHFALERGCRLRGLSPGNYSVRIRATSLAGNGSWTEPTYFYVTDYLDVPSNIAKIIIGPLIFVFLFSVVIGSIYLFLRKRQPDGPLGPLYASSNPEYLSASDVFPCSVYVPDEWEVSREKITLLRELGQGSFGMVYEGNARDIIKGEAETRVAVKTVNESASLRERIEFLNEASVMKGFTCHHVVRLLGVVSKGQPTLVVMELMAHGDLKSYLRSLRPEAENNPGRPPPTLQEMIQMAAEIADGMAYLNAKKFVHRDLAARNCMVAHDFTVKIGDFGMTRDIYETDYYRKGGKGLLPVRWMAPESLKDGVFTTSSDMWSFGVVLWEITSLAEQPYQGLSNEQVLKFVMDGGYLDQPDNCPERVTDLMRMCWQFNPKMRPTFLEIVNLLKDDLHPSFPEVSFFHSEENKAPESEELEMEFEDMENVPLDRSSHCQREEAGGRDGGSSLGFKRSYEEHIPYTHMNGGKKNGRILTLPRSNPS

Structure (SMILES) | % activity remaining (IR) | IC50 (IR; radiometric filter binding panel, read-out: IR pIC50 (converted)) | % activity remaining (MST3) | MST3 pIC50 (MST3; [1]) | IC50 (MST3; radiometric filter binding panel, read-out: MST3 pIC50 (converted)) | % activity remaining (MELK) | MELK pIC50 (MELK; [1]) | IC50 (MELK; radiometric filter binding panel, read-out: MELK pIC50 (converted)) | % activity remaining (ULK2) | ULK2 pIC50 (ULK2; [1]) | % activity remaining (MAP4K5) | MAP4K5 pIC50 (MAP4K5; [1]) | IC50 (MAP4K5; radiometric filter binding panel, read-out: MAP4K5 pIC50 (converted)) | % activity remaining (TAK1) | IC50 (TAK1; radiometric filter binding panel, read-out: TAK1 pIC50 (converted)) | % activity remaining (MARK1) | inhibition at 1 µM (MARK1; at 1 μM, radiometric filter binding assay, Dundee, read-out: MARK1 single point % inhibition)
Cc1cc(=O)n(C2CCCC2)c2nc(Nc3ccc(N4CC5CC(C4)N5C)cc3)ncc12 [Compound 9] | 14% | 263 nM | 17% | > 7 | 112 nM | 6% | > 7 | 53.7 nM | 17% | 7.4 and 7.39 | 14% | > 7 | 110 nM | 6% | 209 nM | 56% | 44%
CN1C2CC1CN(c1ccc(Nc3ncc4ccn(CC5CCOCC5)c4n3)cc1)C2 [Compound 24] | 87% |  | 84% |  |  | 95% |  |  | 75% |  | 78% |  |  | 110% |  | 94% | 
